Here are results for two molecules from patent US12351819B2, “Method for removing undifferentiated pluripotent stem cells” (priority 2017, dated 2025).

For series [1], the system named is hBMMSCs. The series can be described thus: Osteogenic differentiation and Alizarin Red S staining. Format: cell-based, human. As to conditions: 2.5 μM 24 hours, drug removed; Alizarin Red S O.D 570 nm. The procedure:
Drugs were removed, and the cells were washed with PBS and cultured in MSCgo™ Osteogenic Differentiation medium (Biological Industries, Kibbutz Beit-Haemek, Israel)^31. The media changed twice per week for 14-21 days. Next, the cells were fixed with ice-cold 70% ethanol at −20° C. for 1 hour. After washing with water for three times, the cells were then stained with 40 mM Alizarin Red S (ARS) (pH 4.2) at room temperature for 10 minutes. The cells were then washed with PBS for five times. An Olympus CK-40 microscope was used to take the images. For quantification, the dye was extracted with 10% (w/v) cetylpyridinium chloride (Sigma 0732) in sodium phosphate buffer (pH 7.0) for 15 minutes, and the O.D. at 570 nm was measured.

Series [2] has as its system hESCs. Nature of the series: Cell colony and morphology under bright field, hESCs. Format: cell-based, human. The conditions noted are these: 2.5 μM, 12 hours and 24 hours. The procedure:
(§1) Scale bar: 500 μm. […] The samples were normalized to the DMSO-treated hESCs. ***P<0.001; **P<0.01; n.s. not significant. Data are shown as the mean SD.
We investigated whether cardiac glycosides affected the viability of hESCs or other cell types. First, we treated undifferentiated hESCs with digoxin and lanatoside C for 12 hours and 24 hours, respectively. […] To investigate the cytotoxic effect of the cardiac glycosides, we measured the release of LDH in the culture supernatants after the hESCs were treated with digoxin or Lanatoside C for 24 hours (FIG. 1C).

The test system of series [3] is hBMMSCs. Nature of the series: Cell morphology under bright field, hBMMSCs. It counts as cell-based, human. As to conditions: 2.5 μM, 12 hours and 24 hours.
From the text: as §1

Series [4] relates to hESCs. Nature of the series: Alamar blue assay, hESCs. It counts as cell-based, human. As to conditions: FIG. 12. The method, then:
Alamar blue assay measured the relative cell number. In the cells, we added 1/10 of Alamar Blue Viability Assay reagent to the total volume of the mixture (Biotium; Fremont, CA, USA). The cells were incubated overnight at 37° C. The resulted were quantified by the measurement of optical density (OD) absorbance values at 570 nm and 600 nm, and the relative cell number was calculated.

Series [5] has as its system hBMMSCs. Nature of the series: Adipogenesis and Oil Red O assay. Format: cell-based, human. As to conditions: 2.5 μM 24 hours, drug removed; oil red O.D 510 nm. The method, then:
Next, drugs were removed, and the cells were cultured in MSCgo™ Adipogenic Differentiation Medium (Biological Industries). The media was changed every 3-4 days for 8-12 days. After the adipogenic induction, we replaced the MSCgo™ Adipogenic complete medium with MSC maintenance medium for 6-9 days. The cells were carefully fixed with 4% formaldehyde for 1 hour at room temperature, washed with 60% isopropanol, and air-dried. The lipid drops were stained with Oil Red O working solution (30 ml 0.35% oil red solution in isopropanol diluted with 20 ml of distilled water) for 10 minutes. Next, the cells were washed with water 4 times. For quantification, Oil Red O stain was extracted with 100% isopropanol, and the absorbance at 510 nm was detected.

For series [6], the system named is cleaved PARP, caspase-3, caspase-7 in hESCs. The series can be described thus: Western blot of apoptotic markers, hESCs. The conditions noted are these: 2.5 μM, 12 hours. It counts as cell-based, human. The procedure:
(§2) RIPA buffer was used to harvest cell lysates (RIPA buffer: NaCl 150 mM, Tris pH 8.0 50 mM, EDTApH 8.0 5 mM, NP-40 1.0%, SDS 0.5%, sodium deoxycholate 0.1%). Western blot analyses were performed as previously described with different types of primary antibodies^29. The primary antibody includes anti-β-actin (A5441; Sigma), anti-Oct4 (sc-9081; Santa Cruz Biotechnology, Santa Cruz, CA, USA), anti-Nanog (3580; Cell Signaling Technology, Danvers, MA, USA), apoptosis antibody kit (9915; Cell Signaling Technology), ATP1A1 (3010; Cell Signaling Technology), and ATP1A2 (16836-1-AP; Proteintech™) were used. After reaction at 4° C. overnight, the blots were incubated with goat anti-mouse- or goat anti-rabbit antibody conjugated with horseradish peroxidase (Jackson ImmunoResearch Inc). The chemiluminescent substrate (WBKLS0500; Millipore, Darmstadt, Germany) was used to detect the blots. Fujifilm LAS-4000 (FUJIFILM, Tokyo, Japan) was used to take the images.

In series [7] the test system is hiPSC-derived endothelial cells. Nature of the series: LDH cytotoxicity assay in hiPSC-derived endothelial cells. It counts as cell-based, human. As to conditions: 2.5 μM, 24 hours.
Procedure: The released LDH was measured using CytoTox 96 Non-Cytotoxicity assay according to the manufacture's instruction (Promega, Southampton, UK). The supernatants and reagents were incubated at room temperature for 20 minutes and then the reaction was stopped by Stop Solution. The absorbance at 490 nm was measured using a plate-reading spectrophotometer (Benchmark Plus Microplate Spectrophotometer System, BIO-RAD, CA, USA).
For another series, the system named is hiPSCs. The conditions noted are these: for cytotoxicity (LDH release) in hiPSCs: 2.5 μM, 24 hours; for LDH assay positive, hiPSCs: Table 1. The procedure:
The supernatants of cells treated with digoxin […], lanatoside C 2.5 μm, or DMSO solvent control for 24 hours were harvested. The released LDH was measured using CytoTox 96 […] assay according to the manufacture's instruction (Promega, Southampton, UK). The supernatants and reagents were incubated at room temperature for 20 minutes and then the reaction was stopped by Stop Solution. The absorbance at 490 nm was measured using a plate-reading spectrophotometer (Benchmark Plus Microplate Spectrophotometer System, BIO-RAD, CA, USA).
hiPSC-derived endothelial cells were prepared according in a previous report^34. The hiPSCs were maintained in mTeSR 1 medium ([…] Technologies, Vancouver, Canada) on VTN-N coated plates (Thermo, Wilmington, DE, USA). First, for the stepwise induction of differentiation, we performed a mesoderm induction of hiPSCs seeded in mesoderm induction medium for 48 hours (basal medium with […], […], and 2 ng/ml of Activin A; basal medium was composed of 12 g/L of DMEM/F-12, 3.56 g/L of HEPES, 1.742 g/L of sodium bicarbonate, 14 μg/L of sodium selenite, 10.7 mg/L of recombinant transferrin, 19.4 mg/L of recombinant insulin, and 64 mg/L of L-Ascorbic acid 2-phosphate sesquimagnesium salt hydrate). Second, for the mesoderm to endothelium transition, mesoderm cells were reseeded in vasculogenic medium (basal medium with 2 mg/ml of PVA plus 20 ng/ml of hVEGF-A) for an additional 72 hours. All differentiated cells were plated on VTN pre-coated culture plate dishes. The endothelial cells were analyzed on day 5 by flow cytometry staining with the CD31 (PECAM1, ThermoFisher Scientific, Wilmington, DE, USA) and CD144 (CDH5, ThermoFisher Scientific) antibodies.

The subject of a further series is Nanog in hESCs. The series can be described thus: Western blot of pluripotent stem cell marker Nanog, hESCs. It counts as cell-based, human. The conditions noted are these: 2.5 μM, 12 hours. The procedure: as §2

The structures appear in SMILES notation.

For the molecule `C[C@H]1O[C@@H](O[C@H]2[C@@H](O)C[C@H](O[C@H]3[C@@H](O)C[C@H](O[C@H]4CC[C@@]5(C)[C@H](CC[C@@H]6[C@@H]5C[C@@H](O)[C@]5(C)[C@@H](C7=CC(=O)OC7)CC[C@]65O)C4)O[C@@H]3C)O[C@@H]2C)C[C@H](O)[C@@H]1O` [Digoxin, digoxin], the “differentiation ability of hBMMSCs into osteoblasts” value in the series with hBMMSCs [1] is given as “neither digoxin nor lanatoside C affected the differentiation ability”. The “cell death (bright field morphology) in hESCs” value with hESCs [2] is “induced dramatic cell death”. Moreover, the “survival of hBMMSCs (bright field morphology)” value in the series on hBMMSCs [3] is listed as “did not affect the survival”. Further, the “cell death in hESCs (Alamar blue, relative cell number)” value in the series with hESCs [4] was “dose dependent manner”. Besides, in the series with hBMMSCs [5], the “differentiation ability of hBMMSCs into adipocytes” value is listed as “neither digoxin nor lanatoside C affected the differentiation ability”. For the same molecule, the “cleaved form of PARP, caspase-3, caspase-7 in hESCs” value in series [6] is reported as “increases in the cleaved form”. For the same molecule, the “survival of hiPSC-derived endothelial cells (LDH release)” value in [7] is given as “remained alive”. In addition, in the series on hiPSCs, the “cytotoxicity (LDH release) in hiPSCs” value is “induced cytotoxicity” and the “LDH assay positive, hiPSCs” value is “+++ (more than 70% positive cells)”. Moreover, in the series on Nanog in hESCs, the “protein levels of Nanog in hESCs” value is reported as “downregulated”.
For `CC(=O)O[C@H]1C[C@H](O[C@H]2[C@@H](O)C[C@H](O[C@H]3[C@@H](O)C[C@H](O[C@H]4CC[C@@]5(C)[C@H](CC[C@@H]6[C@@H]5C[C@@H](O)[C@]5(C)[C@@H](C7=CC(=O)OC7)CC[C@]65O)C4)O[C@@H]3C)O[C@@H]2C)O[C@H](C)[C@H]1O[C@@H]1O[C@H](CO)[C@@H](O)[C@H](O)[C@H]1O` [Lanatoside C, lanatoside C], the “differentiation ability of hBMMSCs into osteoblasts” value in the series with hBMMSCs [1] is listed as “neither digoxin nor lanatoside C affected the differentiation ability”. Further, in the series with hESCs [2], the “cell death (bright field morphology) in hESCs” value was “induced dramatic cell death”. In addition, the “survival of hBMMSCs (bright field morphology)” value in the series with hBMMSCs [3] is on record as “did not affect the survival”. Further, the “cell death in hESCs (Alamar blue, relative cell number)” value in the series with hESCs [4] is on record as “dose dependent manner”. For the same molecule, in the series with hBMMSCs [5], the “differentiation ability of hBMMSCs into adipocytes” value is “neither digoxin nor lanatoside C affected the differentiation ability”. The “cleaved form of PARP, caspase-3, caspase-7 in hESCs” value in series [6] was “increases in the cleaved form”. In series [7], the “survival of hiPSC-derived endothelial cells (LDH release)” value was “remained alive”. In addition, in the series on hiPSCs, the “cytotoxicity (LDH release) in hiPSCs” value is recorded as “induced cytotoxicity” and the “LDH assay positive, hiPSCs” value is “+++ (more than 70% positive cells)”. Besides, the “protein levels of Nanog in hESCs” value in the series on Nanog in hESCs is “downregulated”.
